Where “and” joins values, the source holds several entries; their conditions need not be identical. Equal entries are not always repeated. Entries after “also recorded” stand apart in the source; their conditions may differ. Marks after values point to notes of the source that are not given here.
Tests used:
PSMA+ tumors = test: Tumor dosimetry and uptake by SPECT imaging in patients; type: in vivo, human
From the text: In addition to assessing radiation exposure to dose limiting organs, it is also feasible to use SPECT/CT or SPECT/MRI imaging and dosimetry to estimate CTT1403 dose to the tumor, which could indicate efficacy.
CTT1057 PSMA+ PET is used to screen patients for PSMA avid tumors prior to enrollment into the clinical trial. SPECT/CT images are collected serially on days 1, 3, 5 and 8 following CTT1403 dose administration to assess dosimetry, or exposure of normal organs and the tumor to the radionuclide, 177-lutetium. […] FIGS. 2-7 show the PET images collected prior to and after CTT1403 and serial SPECT/CT images collected from patients enrolled in the clinical trial. Further, Table 4 compares the doses in kidney and tumor reported by Violet et al (Violet, J., et al., “Dosimetry of (177)Lu-PSMA-617 in Metastatic Castration-Resistant Prostate Cancer: Correlations Between Pretherapeutic Imaging and Whole-Body Tumor Dosimetry with Treatment Outcomes” J Nucl Med, 2019. 60(4): p. 517-523) compared to findings to date in patients administered CTT1403.

[1] = Pharmacokinetics of CTT1403 in mCRPC subjects (radioactivity of blood samples); type: in vivo, human
Description: In order to investigate the pharmacokinetics of CTT1403, doses were administered by IV to fifteen subjects. The subjects each had histologically confirmed prostate adenocarcinoma that was metastatic and castration resistant (mCRPA). Subjects with de novo small cell carcinoma of the prostate were excluded. The subjects further had at least three metastatic foci avid for PSMA-specific PET agent CTT1057 or 68Ga-PSMA-11 uptake. PSMA avidity was defined as SUVmax>mediastinal blood pool. The subjects had received docetaxel, were ineligible for docetaxel, or had refused docetaxel. They all further had progression by the PCWG3 criteria during or after treatment with abiraterone, enzalutamide, and/or apalutamide, and had serum testosterone<50 ng/dL. Subjects without a history of bilateral orchiectomy were required to remain on a luteinizing hormone-releasing hormone (LHRH) analog during the course of the protocol therapy.
Pharmacokinetics assessment follows the movement of drugs throughout the body, including measurement of the drug's half-life in circulation. The longer a drug remains available in circulation before being cleared from the body, the greater the opportunity for it to meet its target and achieve the desired therapeutic effect. To measure pharmacokinetics, remaining CTT1403 was estimated by measuring the radioactivity of blood sample withdrawn at particular time points. Each patient received a dose ranging from 0.75 GBq to 7.5 GBq.
This is already more than a 5.3-fold greater distribution phase and 3.5-fold greater elimination phase than the PSMA-617 agent (without the albumin binder) and will further increase as the dose increases. […] CTT anticipates that these early observations will translate to compelling efficacy as the trial progresses. Table 1 reports the blood distribution and elimination half-lives for 13 of 15 patients enrolled in the study. […] Longer clearance half-lives will advantageously yield enhanced drug delivery as CTT1403 has more time to find and bind to expressed PSMA. This effect also allows more time for the therapeutic agent to reach smaller tumors or poorly-vascularized tumors. Longer systemic circulation of CTT1403 afforded by the albumin motif believed to lead to lower dosing of the kidneys, a dose-limiting factor, allowing higher dosages to be safely administered.

[2] = Physical examination and monitoring for adverse events in the clinical trial; type: in vivo, human; details: to date
[3] = Preclinical rat studies of CTT1403 kidney exposure; type: in vivo
From the text: CTT1403 localization in various organs is accomplished by estimating dosimetry using SPECT/CT or SPECT/MRI imaging of the radioisotope component (using the gamma particle emission) of CTT1403, ^177Lu, up to 8 days after the first dose. […] Preclinical studies in rats with CTT1403 identified the kidneys as the dose limiting organ. Table 2, below, summarizes kidney dosimetry calculated from the first 15 patients enrolled in the study after receipt of escalating doses of CTT1403 and contrasts it with the predicted kidney exposure from rat studies. […] Preclinical studies in rats estimated expected kidney exposure of ˜5.2 Gy/GBq. […] CTT1403 may be sequestered in tumors and under exposing the kidney.

[4] = CTT1403 (7.5 GBq +/− 10%), preliminary, 2 tumors per patient in patients 14 and 15
[5] = patient 1, dose 0.73 GBq (19.6 mCi)
[6] = patient 4, dose 3.0 GBq (81.1 mCi)
[7] = patient 6, dose 2.98 GBq (80.5 mCi)
[8] = patient 14, dose 7.98 GBq (215.7 mCi)
[9] = patient 15, dose 7.77 GBq (210 mCi)
[10] = 1.5 GBq IV (1st patient at this dose)
[11] = 2.0 GBq IV (1st patient at this dose)
[12] = 3.0 GBq IV (1st patient at this dose)
[13] = 3.0 GBq IV (2nd patient at this dose)
[14] = 3.0 GBq IV (3rd patient at this dose)
[15] = 4.5 GBq IV (1st patient at this dose)
[16] = 4.5 GBq IV (2nd patient at this dose)
[17] = 4.5 GBq IV (3rd patient at this dose)
[18] = 6.0 GBq IV (1st patient at this dose)
[19] = 6.0 GBq IV (2nd patient at this dose)
[20] = 6.0 GBq IV (3rd patient at this dose)
[21] = 7.5 GBq IV (1st patient at this dose)
[22] = 7.5 GBq IV (2nd patient at this dose)
[23] = half-life of CTT1403 vs reported 177Lu-PSMA-617
[24] = mean of 13 patients, 1.5-7.5 GBq IV, preliminary

O=C(O)CC[C@H](NP(=O)(O)OCCC[C@H](NC(=O)CC[C@H](NC(=O)CCCCCNC(=O)CCC(NC(=O)CCOCCOCCOCCOCCNC(=O)CCC(=O)N1Cc2ccccc2-c2c(nnn2CCCNC(=O)CN2CCN3CCN4CCN(CC2)CC(=O)[O][177Lu]([O]C(=O)C3)[O]C(=O)C4)-c2ccccc21)C(=O)NC(CCCCNC(=O)CCCc1ccc(I)cc1)C(=O)O)C(=O)O)C(=O)O)C(=O)O (stereo partly drawn) [CTT1403]
CTT1403 within tumor by SPECT (PSMA+ tumors; 4.5 GBq, through 7 days post-administration (FIG. 9, patient 12)): uptake of CTT1403 in tumors; also recorded: still clearly present
uptake of CTT1403 in tumors by SPECT (PSMA+ tumors; 24 hours after administration of 7.5 GBq (FIG. 10, patient 17)): distinct uptake
Tumor Dose to date, Dose Gy/GBq (PSMA+ tumors; [4]): 1.948* Gy/GBq
Tumor Dose to date, Mean Dose (Gy) (PSMA+ tumors; [4]): 14.61* Gy
tumor dose (PSMA+ tumors; administered by 3.0 GBq): ~1 Gy
Tumor 1 (Gy) (PSMA+ tumors; [5]): 0.122 Gy
Tumor 2 (Gy) (PSMA+ tumors; [5]): 0.1164 Gy
Tumor 1 (Gy) (PSMA+ tumors; patient 2, dose 1.5 GBq (40.5 mCi)): 0.2461 Gy
Tumor 2 (Gy) (PSMA+ tumors; patient 3, dose 2.03 GBq (54.8 mCi)): 0.2553 Gy
Tumor 1 (Gy) (PSMA+ tumors; [6]): 1.282 Gy
Tumor 2 (Gy) (PSMA+ tumors; [6]): 0.3729 Gy
Tumor 3 (Gy) (PSMA+ tumors; [6]): 1.906 Gy
Tumor 1 (Gy) (PSMA+ tumors; patient 5, dose 2.95 GBq (79.8 mCi)): 1.639 Gy
Tumor 1 (Gy) (PSMA+ tumors; [7]): 1.104 Gy
Tumor 2 (Gy) (PSMA+ tumors; [7]): 0.329 Gy
Tumor 1 (Gy) (PSMA+ tumors; [8]): 13.6 Gy
Tumor 2 (Gy) (PSMA+ tumors; [8]): 12.7 Gy
Tumor 1 (Gy) (PSMA+ tumors; [9]): 22.4 Gy
Tumor 2 (Gy) (PSMA+ tumors; [9]): 9.74 Gy
tumor dose compared to 177Lu-PSMA-617 (PSMA+ tumors; patients at 7.5 GBq+/−10%, early reported): at least similar and possibly even greater
tumor Gy/GBq compared to 177Lu-PSMA-617 in patients with PSA<50% (PSMA+ tumors; vs patients with less than a 50% reduction in circulating PSA): significantly outperform
Distribution Half-life [1, 10]: 0.75 h
Elimination Half-life 2 [1, 10]: 28.88 h
Distribution Half-life [1, 11]: 1.04 h
Elimination Half-life 2 [1, 11]: 23.90 h
Distribution Half-life [1, 12]: 0.51 h
Elimination Half-life 2 [1, 12]: 27.73 h
Distribution Half-life [1, 13]: 0.89 h
Elimination Half-life 2 [1, 13]: 31.51 h
Distribution Half-life [1, 14]: 0.70 h
Elimination Half-life 2 [1, 14]: 36.48 h
Distribution Half-life [1, 15]: 0.85 h
Elimination Half-life 2 [1, 15]: 33.01 h
Distribution Half-life [1, 16]: 0.85 h
Elimination Half-life 2 [1, 16]: 34.66 h
Distribution Half-life [1, 17]: 0.85 h
Elimination Half-life 2 [1, 17]: 43.32 h
Distribution Half-life [1, 18]: 0.78 h
Elimination Half-life 2 [1, 18]: 46.21 h
Distribution Half-life [1, 19]: 0.57 h
Elimination Half-life 2 [1, 19]: 30.14 h
Distribution Half-life [1, 20]: 1.06 h
Elimination Half-life 2 [1, 20]: 33.01 h
Distribution Half-life [1, 21]: 1.20 h
Elimination Half-life 2 [1, 21]: 57.76 h
Distribution Half-life [1, 22]: 1.00 h
Elimination Half-life 2 [1, 22]: 57.76 h
CTT1403 detection in blood ([1]; after 2 weeks, subjects who received the 7.5 GBq dose): still detected
fold greater distribution phase than the PSMA-617 agent [1, 23]: > 5.3 fold
fold greater elimination phase than the PSMA-617 agent [1, 23]: > 3.5 fold
Distribution half-life (mean) [1, 24]: 0.85 ± 0.2 h
Elimination half-life (mean) [1, 24]: 37.3 ± 10.9 h and 37.26 h
Distribution phase half-life, range ([1]; range over patients, 1.5-7.5 GBq IV): 0.51 to 1.2 h
circulation time compared with 177Lu-PSMA-617 ([1]; vs agent lacking the albumin binding moiety): at least two to ten-fold greater
serious adverse events after receipt of CTT1403 [2]: no serious adverse events
dose limiting organ ([3]; preclinical studies in rats): kidneys
expected kidney exposure estimated from preclinical studies in rats ([3]; predicted human kidney exposure from rat studies): ~5.2 Gy/GBq

— patent US20230064292A1, “METHODS OF TREATING PSMA-POSITIVE CANCER USING RADIONUCLIDE THERAPY” (priority 2020, published 2023)
